Test results published in patent publication US12384787B2, “Fused heterocyclic compounds and their use as pest control agents” (PI INDUSTRIES LTD., priority 2019, dated 2025).

Legend:
Assay type in all cases: in vivo
Myzus persicae = Myzus persicae leaf dip method (capsicum leaves); conditions: foliar, third instar nymphs, 72 h after release, dead and moribund combined, compared to untreated control, read-out: Percent mortality
Protocol: The leaf dip method was used for testing, wherein the required quantity of the test compounds were weighed and dissolved in a surfactant solution, kept on a Vortex at 2000 rpm with zirconia beads for 90 min for proper mixing and then diluted with 0.01% Triton-X solution to the desired test concentration. Capsicum leaves were dipped in the solution for 10 seconds, shade dried for 20 min and then the leaves were kept in glass units with the petiole dipped in water. Known numbers of third instar nymphs were released into the glass units and then kept in the plant growth chambers at a temperature of 25° C. and relative humidity of 70%. Observations on dead, moribund and living nymphs were recorded at 72 h after the release. Percent mortality was calculated by combining dead and moribund nymphs and comparing the result to the one of the untreated control. The compounds 9 14 16 22 23 50 71 104 and 131 were showing efficacy higher than 70 percent mortality @ 300 PPM.

Plutella xylostella = Plutella xylostella leaf dip method (cabbage leaves); conditions: foliar, second instar larvae, 72 h after release, dead and moribund combined, compared to untreated control, read-out: Percent mortality
Spodoptera litura = Spodoptera litura diet incorporation method; conditions: third instar larvae, 96 h after release, dead and moribund combined, compared to untreated control, read-out: Percent mortality
Protocol: Diet incorporation method was used, in which the required quantity of test compounds were weighed and dissolved in surfactant solution, kept on vortex for 90 min for proper mixing, then diluted with water to the desired test concentrations. The solutions were incorporated into semi-synthetic diet when the temperature reached approximately 50° C. in the bioassay containers. The diet and solution was stirred thoroughly for properly mixing and was left to cool for 30 min. The solidified diet was cut into equal pieces, and then each piece was transferred into one cell of the bio-assay trays. A single starved third instar larva was released into each of these cells of the bioassay trays and the tray was covered with a lid. The bio-assay trays were kept under laboratory conditions at a temperature of 25° C. and relative humidity of 70%. Observations on dead, moribund and alive larvae were recorded at 96 h after the release of the larvae. Percent mortality was calculated by combining dead and moribund larvae and comparing the result to the one of the untreated control.

Nilaparvata lugens = Nilaparvata lugens seedling dip method (paddy seedlings); conditions: third instar nymphs, 72 h after release, dead and moribund combined, compared to untreated control, read-out: Percent mortality
Protocol: Seedling dip method was used for screening, wherein the required quantity of the test compounds were weighed and dissolved in surfactant solution, kept on a Vortex at 2000 rpm with zirconia beads for 90 min for proper mixing, then diluted with 0.01% Triton-X solution to the desired test concentration. Paddy seedlings were dipped in the solution for 10 seconds, shade dried for 20 min and then transferred into glass tubes with the roots kept in water. Known numbers of third instar nymphs were released into the test tubes and the tubes were kept in the plant growth chamber at a temperature of 25° C. and relative humidity of 75%. Observations on dead, moribund and living nymphs were recorded at 72 h after the release. Percent mortality was calculated by combining dead and moribund nymphs and comparing the result to the one of the untreated control.

Bemisia tabaci = Bemisia tabaci leaf dip method (cotton leaves); conditions: foliar, freshly emerged adults, 72 h after release, dead and moribund combined, compared to untreated control, read-out: Percent mortality
Protocol: The leaf dip method was used for testing, wherein the required quantity of the test compounds were weighed and dissolved in surfactant solution, kepton a Vortex at 2000 rpm with zirconia beads for 90 min for proper mixing and then diluted with 0.01% Triton-X solution to the desired test concentration. Cotton leaves were dipped in the solution for 10 seconds, shade dried for 20 min and then the leaves were kept in glass units with the petiole dipped in water. Known numbers of freshly emerged adults were released and kept in the plant growth chamber at a temperature of 25° C. and relative humidity of 70%. Observations on dead, moribund and living adults were recorded at 72 h after the release. Percent mortality was calculated by combining dead and moribund adults and comparing the result to the one of the untreated control.

Helicoverpa armigera = Helicoverpa armigera diet incorporation method; conditions: third instar larvae, 96 h after release, dead and moribund combined, compared to untreated control, read-out: Percent mortality
Protocol: Diet incorporation method was used, in which the required quantity of test compounds were weighed and dissolved in a surfactant solution, kept on vortex for 90 min for proper mixing, then was diluted with water to the desired test concentrations. The solutions were incorporated into semi-synthetic diet when the temperature reached approximately 50° C. in the bioassay containers. The diet and solution was stirred thoroughly for properly mixing and then left to cool for 30 min. The solidified diet was cut into equal pieces, and then each piece was transferred into one cell of the bio-assay trays. A single third starved instar larva was released into each of these cells of the bioassay trays and each tray was covered with a lid. The bio-assay trays were kept under laboratory conditions at a temperature of 25° C. and relative humidity of 70%. Observations on dead, moribund and alive larvae were recorded at 96 h after the release of the larvae. Percent mortality was calculated by combining dead and moribund larvae and comparing the result to the one of the untreated control.

Compound | mortality at 300 ppm (Myzus persicae) | mortality at 300 ppm (Plutella xylostella) | mortality at 300 ppm (Spodoptera litura) | mortality at 300 ppm (Nilaparvata lugens) | mortality at 300 ppm (Bemisia tabaci) | mortality at 300 ppm (Helicoverpa armigera)
CCSc1nn2c(C)cc(C)nc2c1-c1nc2cc(C(F)(F)F)cnc2n1C [Compound 9, 2-(2-(Ethylthio)-5,7-dimethylpyrazolo[1,5-a]pyrimidin-3-yl)-3-methyl-6-(trifluoromethyl)-3H-imidazo[4,5-b]pyridine] | > 70% | > 70% | – | – | – | –
CCS(=O)(=O)c1nn2cc(-c3ccc(Cl)cc3)cnc2c1-c1nc2cc(C(F)(F)F)cnc2n1C [Compound 63, 2-(6-(4-Chlorophenyl)-2-(ethylsulfonyl)pyrazolo[1,5-a]pyrimidin-3-yl)-3-methyl-6-(trifluoromethyl)-3H-imidazo[4,5-b]pyridine] | – | > 70% | > 70% | > 70% | – | –
CCS(=O)(=O)c1nn2cc(Br)cnc2c1-c1nc2cc(C(F)(F)F)cnc2n1C [Compound 71, 2-(6-Bromo-2-(ethylsulfonyl)pyrazolo[1,5-a]pyrimidin-3-yl)-3-methyl-6-(trifluoromethyl)-3H-imidazo[4,5-b]pyridine] | > 70% | > 70% | – | – | – | –
CCSc1nn2c(-c3ccc(Cl)c(F)c3)ccnc2c1-c1nc2cc(C(F)(F)F)ncc2n1C [Compound 119, 2-(7-(4-Chloro-3-fluorophenyl)-2-(ethylthio)pyrazolo[1,5-a]pyrimidin-3-yl)-3-methyl-6-(trifluoromethyl)-3H-imidazo[4,5-c]pyridine] | – | > 70% | – | – | > 70% | –
CCS(=O)(=O)c1nn2c(-c3ccc(Cl)c(Cl)c3)ccnc2c1-c1nc2cc(C(F)(F)F)cnc2n1C [Compound 104, 2-(7-(3,4-Dichlorophenyl)-2-(ethylsulfonyl)pyrazolo[1,5-a]pyrimidin-3-yl)-3-methyl-6-(trifluoromethyl)-3H-imidazo[4,5-b]pyridine] | > 70% | > 70% | – | – | – | > 70%
CCSc1nn2c(C)ccnc2c1-c1nc2cc(C(F)(F)F)cnc2n1C [Compound 131, 2-(2-(Ethylthio)-7-methylpyrazolo[1,5-a]pyrimidin-3-yl)-3-methyl-6-(trifluoromethyl)-3H-imidazo[4,5-b]pyridine] | > 70% | > 70% | – | – | – | –
CCSc1nn2cccnc2c1-c1nc2cc(C(F)(F)F)ncc2n1C [Compound 22, 2-(2-(Ethylthio)pyrazolo[1,5-a]pyrimidin-3-yl)-3-methyl-6-(trifluoromethyl)-3H-imidazo[4,5-c]pyridine] | > 70% | > 70% | – | – | > 70% | –
CCS(=O)(=O)c1nn2cc(Cl)cnc2c1-c1nc2cc(C(F)(F)F)cnc2n1C [Compound 50, 2-(6-Chloro-2-(ethylsulfonyl)pyrazolo[1,5-a]pyrimidin-3-yl)-3-methyl-6-(trifluoromethyl)-3H-imidazo[4,5-b]pyridine] | > 70% | > 70% | – | – | – | –
